Tests used:
Hep-G2 cells = assay: Ultrasound mediated transfection of GFP chromosomes with Saint-2; type: cell-based, human; conditions: of the cells remaining on the slide
Experimental: Hep-G2 cells were grown at 37° C., 5% CO2, in DMEM with 4500 mg/l Glucose, with Pyridoxine/HCL, 10% Fetal Calf Serum, 10000 μg/ml Streptomycin and 1000 μg/ml Penicillin. Between 2×10^5 and 5×10^5 cells were plated onto sterile glass slides in a 12 wells plate 24 hours before usage.
Cells were transfected with GFP chromosomes using the procedure of Example 6A except that the CHO—KI medium was replaced with Hep-G2 medium.

CHO-KI cells = assay: as above; type: cell-based
Experimental: CHO-KI cells were grown at 37°, 5% CO2, in CHO-S-SFM 2 Medium, (Gibco BRL, Paisley, UK). Between 2×10^5 and 5×10^5 cells were plated onto sterile glass slides in a 12 well plate 24 h before usage.
Transfection of the cells was performed as follows. The medium was removed from the cells, and the cells were washed twice with HBSS (Hanks balanced salt solution without Phenol Red (Gibco BRL, UK)) at 37° C. Then 500 μl HBSS at 37° C. was added per well, followed by 10 μl of the freshly prepared vesicle solution (prepared in Example 2) to yield a final concentration of 23.3 nmol/ml.
Alternatively, the medium was removed from the cells, and the cells were washed twice with HBSS. 500 μl HBSS/lipid solution at 37° C. was added to each well. The HBSS/lipid solution was prepared by adding 1 μl ethanolic lipid solution (prepared as described above) to 500 μHBSS under vigorous vortexing. The plates were then sealed with parafilm tape and shaken gently at room temperature for 30 min. After incubation, ultrasound was applied at an output energy of 0.5 Watt/cm^2 for 60 sec through the bottom of the plate to the cells. The ultrasound was mediated by an ultrasound gel (Aquasonic 100, Parker, N.J.) between transducer and plate. The ultrasound was applied with an ImaRx Sonoporator 100. Immediately after applying ultrasound one GFP chromosome per seeded cell (2×10^5-5×10^5) (prepared in Example 1) was added. The plate was then sealed again and shaken gently for 1 h at room temperature. After the incubation 1 ml medium (CHO—S—SFM 2 with 10% Fetal Calf Serum, 10000 μg/ml Penicillin and 10000 μg/ml Streptomycin Gibco BRL, Paisley, UK) was added to each well and the cells were incubated for 24 h at 37° C. The cells were then washed with medium and 1 ml medium was added and the cells were incubated at 37° for another 24 h. Detection of expressed genes was then assayed by microscopy or detection of the transferred chromosome by FISH analysis.
The negative control was performed in the same way, but with no chromosomes added to the cells.

A9 cells = assay: as above; type: cell-based, murine; conditions: of the cells remaining on the glass
Experimental: A9 cells were grown at 37° C., 5% CO2, in DMEM with 4500 mg/l Glucose, with Pyridoxine/HCL, 10% Fetal Calf Serum, 10000 μg/ml Streptomycin and 10000 μg/ml Penicillin (GIBCO BRL, Paisley, UK). Between 2×10^5 and 5×10^5 cells were plated onto sterile glass slides in a 12 well plate 24 h before usage.
Cells were transfected with GFP chromosomes using the procedure of Example 6A except that CHO-KI medium was replaced with A9 medium.

LM(tk−) cells [1] = assay: Nocodazole cell synchronization, cell cycle kinetics by propidium iodide flow cytometry; type: cell-based, murine
Experimental: To determine the optimum blocking concentration of nocodazole, nocodazole concentrations were titrated against LM(tk−) cells to generate a dose response. Timing of the optimal blocking concentration (100 ng/ml) was then assessed over 0-1 6 hours using flow cytometry. To determine the cell cycle kinetics of LM(tk−) cell populations at different time points, cells were stained with propidium iodide (PI) at a concentration of […] for 1×10^6 cells and analyzed with a FACS Vantage SE (Becton Dickinson Immunocytometry Systems, San Jose, Calif.) equiped with an argon laser tuned to 488 nm at 200 mW. Whole intact cells were gated on forward scatter (FSC, representing cell size) versus side scatter (SSC, representing internal granularity) and PI emission was detected with a 630/22 filter. A list mode file was generated with a minimum of 20,000 whole intact cells analyzed. The proportion of cells in G0-G1, S and G2-M were documented for each time point. Optimum cell-cycle arrest at the G2/M boundary was achieved by incubating cells with 100 ng/ml nocodazole in serum containing DMEM medium for 6 hours. After 6 hours of nocodazole exposure at 100 ng/ml, approximately 20% of cells were in S phase and 50% of cells were at G2/M. Cell cycle kinetics were again monitored by flow cytometry upon release of the nocodazole block and at frequent intervals over a 16 hour period.

LM(tk−) cells [2] = assay: ACes transfection at time points after release of nocodazole block, hygromycin selection and FISH; type: cell-based, murine; conditions: nocodazole synchronized colonies (20/47), LipofectAMINE PLUS or Superfect; asynchronous control colonies 4% (2/49)
Experimental: Cells were plated at 7.5×10^5 cells per well of a 6-well plate 24 hours prior to nocodazole treatment. The cells were incubated with nocodazole for 6 hours. After the 6 hour incubation, wells were hosed with medium to dislodge the suspension fraction of cells. Nocodazole containing medium was removed and the wells were washed with fresh medium. The wash medium was aspirated and fresh medium was replaced in the wells. To determine the optimum time point for transfection, different cell samples were transfected at different time points after release of the nocodazole block. The time points were 0, 2, 4, 6, 8, 12, and 16 hours after release of the nocodazole block. Following transfer, the cells were plated and transfectants identified using hygromycin selection. Highest colony formations were achieved when transfection occurred 2-4 hours post nocodazole block. At these time points, cell population distribution included approximately 10% of cells in G0/G1, 20% in S, and 70% in G2/M. Transfectants were analyzed using FISH to determine the quality of the transferred material. […]
Cells were synchronized by nocodazole treatment (100 ng/ml final concentration) for 6 hours prior to transfection. […] Twenty-four hours post-transfection the cells are counted (Coulter counter) and a small fraction are plated for a modified toxicity assay. […]

LM(tk−) cells [3] = assay: Thymidine cell synchronization, cell cycle kinetics by flow cytometry; type: cell-based, murine; conditions: 16 hours incubation, dose range 1-20 mM tested
Experimental: To determine the optimum parameters for cell cycle synchronization, thymidine was administered to cell samples in a dose range of 1-20 mM. Samples were analyzed by flow cytometry to determine the cell cycle kinetics of LM(tk−) cell populations at frequent intervals over a 16 hour time period. Optimum synchronization of cells in G0/G1 was achieved by incubating LM(tk−) cells with 10 mM thymidine in serum containing DMEM medium for 16 hours. The thymidine block was released by washing the cells twice in serum-free medium and replacing the medium with complete medium containing 24 μM 2′-deoxycytidine 5′ mono-phosophate (dCMP; Sigma D-7750, St. Louis, Mo.). Cell cycle kinetics were again monitored by flow cytometry upon release of the thymidine block and at frequent intervals over a 16 hour period.

[4] = 2-4 hours post nocodazole block
[5] = after 6 hours of nocodazole exposure at 100 ng/ml

## CCCCCCCCC=CCCCCCCCCC(CCCCCCCCC=CCCCCCCCC)c1cc[n+](C)cc1.[Cl-] (stereo not shown) [Saint-2, 1-methyl-4-(1-octadec-9-enyl-nonadec-10-enylenyl) pyridinium chloride]
Hep-G2 cells
  remaining cells positive for green fluorescent protein expression: 80%
CHO-KI cells; after 48 hours
  GFP positive cells, of original population: 3%
CHO-KI cells; after 48 hours, of the cells remaining on the slide
  remaining cells positive for green fluorescent protein expression: 10%
CHO-KI cells; after culturing for two weeks
  cells containing an intact artificial chromosome (FISH): 1.4%
A9 cells
  remaining cells positive for green fluorescent protein expression: 50%

## COC(=O)Nc1nc2ccc(C(=O)c3cccs3)cc2[nH]1 [nocodazole]
LM(tk−) cells [1]; [4]
  cells in G0/G1: approximately 10%
  cells in G2/M: ~70%
  cells in S: ~20%
LM(tk−) cells [1]; 6 hours incubation, serum containing DMEM
  optimal blocking concentration for cell-cycle arrest at the G2/M boundary: 100 ng/mL
LM(tk−) cells [1]; [5]
  cells at G2/M: ~50%
  cells in S phase: approximately 20%
LM(tk−) cells [2]
  percentage of colonies where at least 50% of the cells had an intact ACes (FISH): 43%

## Cc1cn([C@H]2C[C@H](O)[C@@H](CO)O2)c(=O)[nH]c1=O [thymidine]
LM(tk−) cells [3]
  concentration for optimum synchronization of cells in G0/G1: 10 mM

Source: patent publication US20030224522A1, “Methods for delivering nucleic acid molecules into cells and assessment thereof” (priority 2002, published 2003)
